For data set [1], the system named is HO-1. The data set can be described thus: Western blot of HO-1 protein expression in Raw 264.7 macrophages. Type of data set: cell-based, murine. The settings on record: Raw 264.7 cells, 5 μM, 18 hours. The procedure:
(§1) Raw 264.7 cells, a murine macrophage cell line catalog no. TIB-71TM (ATCC, Manassas, Va.), were treated with NATx0 or NATx5 (5 μM) for 18 hours. Cells were lysed, and total protein concentration was measured with Pierce BCA assay (Thermo Fisher Scientific, Rockford, Ill.). For electrophoresis, 30 μg of protein was used in each line. The proteins were electrophoresed on a Tris/glycine SDS-polyacrylamide gradient gel (10-15%) and transferred to nitrocellulose membrane. The primary antibodies used for detection was rabbit polyclonal anti-HO-1 or anti-GCLM (Abcam, Cambridge, Mass.). Blots were visualized using horseradish peroxidase-conjugated secondary antibodies and ECL Plus detection system (GE Healthcare, Little Chalfont, UK). Blots were detected with a scanner. Protein expression was quantified with ImageQuant TL7.0 software (GE Healthcare, Little Chalfont, UK).

Data set [2] concerns GCLM. The experiment in a line: Western blot of GCLM protein expression in Raw 264.7 macrophages. It counts as cell-based, murine. The note with it: Raw 264.7 cells, 5 μM, 18 hours. The procedure: as §1
Background: In western blotting, separated proteins are transferred to a membrane and probed.

Data set [3] is described as follows: Michael adduct formation with β-mercaptoethanol (UV-visible spectra, stopped-flow kinetics). Type of data set: physicochemical. The note with it: 25 μM compound, BME 0.54-2.73 mM, absorbance at 260 nm, 25° C. The procedure:
UV-visible spectra was acquired by a Varian Cary 50 Bio. Scans were taken every min up to 15 min.
In FIG. 2, it is shown that the reaction between NATx0 and BME was determined to be a second order rate constant. Stopped-flow kinetic measurements were performed using a Rx 2000 stopped flow analyzer (Applied Photophysics). Mixutres of 150 μL NATx0 (25 μM) and solutions of BME at 0.54 mM, 1.09 mM, 1.64 mM, 2.18 mM, and 2.73 mM concentrations.

A short description of data set [4]: Stability in polyethylene glycol 300-400 at 37° C. Type of data set: physicochemical. The settings on record: PEG 300 to PEG 400, 37° C., two weeks, RP-HPLC. The procedure: FIG. 10 presents the incubation of NATx0 incubated in PEG 300 to PEG 400 at 37° C. for two weeks. At each time point, an aliquot was extracted with methanol and analyzed by reverse phase chromatography as before. After two weeks in 37° C. in PEG, 50% of the initial concentration of NATx0 was recovered.

Data set [5] deals with THP-1 cells. The data set can be described thus: Cell viability (MTT) of THP-1 macrophages stimulated with LPS and ATP. It counts as cell-based. The settings on record: THP-1 macrophages activated by LPS or ATP, compound 0.5-20 μM together with first or second signal. As to the method: (§2) FIGS. 6A and 6B illustrate the effect of NATx0 on cell viability and NLRP3 inflammasome activation. THP-1 cells were differentiated into macrophages (PMA 200 nM, 48 hours). […] The cells were treated with NATx0 at 0.5 μM, 1.0 μM, 2.5 μM, 5.0 μM, 10 μM and 20 μM concentrations together with the first signal or the second signal. Cell viability was measured by MTT assay. Supernatant was stored.
(§3) At the first signal, we only observed a full inhibition of the inflammasome at 20 μM.

For data set [6], the system named is NLRP3 inflammasome. The experiment in a line: NLRP3 inflammasome activation in THP-1 macrophages, IL-1β by ELISA. It counts as cell-based. As to the method: as §2
In FIGS. 7A and 7B, supernatant stored from the previously described experiment were measured for IL-1β by ELISA.
as §3
Background: An ELISA detects its analyte on a solid surface through an enzyme-linked reagent.

Data set [7] can be described thus: Michael adduct formation with glutathione (UV-visible spectra, stopped-flow kinetics). It counts as physicochemical. The note with it: 25 μM compound, absorbance at 260 nm, 25° C. As to the method:
In FIG. 3, 130 μM NATx0 was incubated with 2 mM Glutathione (Sigma) in 100 mM pH 7 phosphate buffer. UV-visible spectra was acquired by a Varian Cary 50 Bio. Scans were taken every min up to 15 min.
FIG. 4 illustrates a second order rate constant of the reaction between NATx0 and GSH. Stopped-flow kinetic measurements were performed using a Rx 2000 stopped flow analyzer (Applied Photophysics). Mixutres of 150 μL NATx0 (25 μM) and solutions of BME at 0.54 mM, 1.09 mM, 1.64 mM, 2.18 mM, and 2.73 mM concentrations.

For data set [8], the system named is RAW 264.7 cells. The data set can be described thus: Cytotoxicity in RAW 264.7 cells (MTT assay). The settings on record: Mus musculus, RAW264.7, 24 h treatment, read-out: IC50 (cell viability). It counts as cell-based, murine. The procedure: FIG. 8 NATx0 cell cytotoxicity was evaluated in RAW 264.7 cells at 1, 5, 10, 50 and 100 μM in DMSO. Cells were treated for 24 h with NATx0 and then MTT assay was performed. The absorbance at 570 nm was measured for each condition by triplicate. The % cell liability was calculated using control group (DMSO, without treatment). The half maximal inhibitory concentration (IC50) was calculated after % cell viability was plotted against the concentration of NATx0 and fitted to an exponential function using OriginLab software (version 8.0).
For orientation: Tetrazolium dyes change colour on reduction, which living cells bring about.

Data set [9] relates to serum levels of IL-1β. The data set can be described thus: LPS-induced inflammatory response in C57BL/6 mice, serum IL-1β by ELISA. It counts as in vivo. The settings on record: 20 mg/kg i.p. 1 hour before 10 mg/kg LPS i.p., 2 hours after LPS. The procedure: In vivo testing was carried out in C57BL/6 mice. The mice were injected intraperitoneally (“i.p.”) with 20 mg/kg NATx0 or a control (DMSO) 1 hour before i.p. injection of 10 mg/kg LPS Escherichia coli 055:B5 (Sigma-Aldrich). After 2 hours the mice were killed, and serum levels of IL-1β were measured by ELISA to determine inflammatory response.

Data set [10] has as its system NF-κB/p65. The data set can be described thus: LPS-induced NF-κB/p65 nuclear translocation in THP-1 macrophages (immunofluorescence). Type of data set: cell-based. The settings on record: 10 uM, 2 hs before LPS (1 ug/mL). The text has this: Nuclear factor kappa B (NF-κB) represents a family of pro-inflammatory transcription factors, present in all eukaryotic cells, which regulate inducible expression of wide ranging genes involved in immune responses and cell-cycle regulation. Activation of NF-κB is accompanied by nuclear translocation of NF-κB. […] Specifically, FIG. 11 illustrates immunofluorescence and epifluorescence microscopy analysis showing the effect of NATx0 on LPS-induced NF-κB/p65 subcellular localization in THP-1 macrophages.

The structures appear in SMILES notation.

Turning to `CCC/C(=C\C1(C)CCc2c(C)c(O)c(C)c(C)c2O1)[N+](=O)[O-]` (racemic) [NATx5, (±)-2,5,7,8-tetramethyl-2-[(E)-2-nitropent-1-en-1-yl]chroman-6-ol], in data set [1], the HO-1 protein expression entry was “induced the expression”. The GCLM protein expression entry in [2] is “induced the expression”.

As for `Cc1c(C)c2c(c(C)c1O)CCC(C)(/C=C/[N+](=O)[O-])O2` (racemic) [NATx0, (±)-2,5,7,8-tetramethyl-2-[(E)-2-nitrovinyl]chroman-6-ol], the “second order rate constant of the reaction with BME” value in data set [3] is 23.45 M⁻¹ s⁻¹. The compound further showed an initial concentration recovered in data set [4] of 50%. Further, the “cell mortality (cell viability by MTT)” value in [5] is recorded as “does not induce an increase in cell mortality”. Further, in data set [6] (compound applied together with the first signal (LPS 250 ng/mL, 3 hours)), the “concentration giving full inhibition of the inflammasome” value was determined as 20 µM. For the same compound, the “concentration at which NLRP3 inflammasome activation is already inhibited” value in [6] (compound applied together with the second inflammasome-activating signal) turned out to be 5 µM. Moreover, the “inhibition of inflammasome activation (IL-1β)” value in [6] (compound applied together with the second signal (ATP 5 mM, 45 minutes), 0.5-20 μM) is “inhibited inflammasome activation in dose dependent manner”. In data set [7], the “second order rate constant of the reaction with GSH” value was 23.45 M⁻¹ s⁻¹. The 50% inhibitory concentration (IC50) in [8] stood at 24 µM. In addition, in data set [1], the HO-1 protein expression result is on record as “induced the expression”. Moreover, the GCLM protein expression result in data set [2] is “induced the expression”. The “inflammatory response (serum IL-1β)” value in data set [9] is “did not increase”. In addition, in [10], the “LPS-induced NF-κB/p65 nuclear translocation” value is on record as “no change from the negative control”.

The IC50 is the concentration at which inhibition is half-maximal.

Source of the values: US9994541B2, “Nitroalkene trolox derivatives and methods of use thereof in the treatment and prevention of inflammation related conditions” (Institut Pasteur de Montevideo, priority 2016, dated 2018).
